Our source for the IC50 and CC50 values is patent US20230331715A1, “SPIRO[3.3]HEPTANE DERIVATIVES FOR THE TREATMENT AND PROPHYLAXIS OF HEPATITIS B VIRUS INFECTION” (priority 2020, published 2023).

Holding throughout (type): cell-based
In one series the test system is HBsAg. Description: PHH HBV natural infection assay, HBsAg (alphalisa). Conditions: Hepatitis B virus, 72 h, read-out: HBsAg IC50, HBV-infected PHH, culture supernatant, compound refreshed two times with 72-hour interval, alphalisa. The method in brief:
(§1)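 Primary human hepatocytes infected with HBV at 200 GE/cell plus 4% PEG8000 for 24 h, then sandwich-cultured 72 h in 1% DMSO medium. Compound-containing medium given twice at 72-h intervals. HBsAg and HBeAg measured in supernatant by AlphaLISA.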

Series [1] can be described thus: Cytotoxicity in PHH natural infection assay (Cell Counting Kit-8). Conditions: human; HBV-infected PHH, CCK8, compound refreshed two times with 72-hour interval. The method in brief: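 HBV-infected primary human hepatocytes (200 GE/cell, 4% PEG8000, 24 h; then 72 h sandwich culture) treated with compounds in medium refreshed twice at 72 h intervals. Cytotoxicity measured with CCK8 at end of treatment.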

Another series concerns HBeAg. Briefly: PHH HBV natural infection assay, HBeAg (alphalisa). Conditions: Hepatitis B virus, 72 h, read-out: HBeAg IC50, HBV-infected PHH, culture supernatant, compound refreshed two times with 72-hour interval, alphalisa. The method in brief:
as §1

For `N=S(=O)(c1cc(C(=O)NC2CC3(C2)CC(c2nc4cc(Cl)ccc4s2)C3)ccn1)C1CC1` (stereo not drawn) [Example 41, N-[6-(5-chloro-1,3-benzothiazol-2-yl)spiro[3.3]heptan-2-yl]-2-(cyclopropylsulfonimidoyl)pyridine-4-carboxamide], the concentration for half-maximal inhibition (IC50) in the series on HBsAg stood at 900 nM; in the series on HBeAg, 670 nM. Moreover, the CC50 at 144 h in series [1] is greater than 10000 nM.
